Assay results reported in the CATMoS acute toxicity set (Mansouri et al. 2021).
Where a SMILES comes first, the peptide text is derived from it.

Test: GHS categories as the set defines them, by LD50: 1 up to 5, 2 up to 50, 3 up to 300, 4 up to 2000, 5 above 2000 mg/kg
Conditions: rat; in vivo; po

Structure (SMILES) | GHS category
CON=C(C(=O)N[C@@H]1C(=O)N2C(C(=O)OC(C)OC(C)=O)=C(COC(N)=O)CS[C@H]12)c1ccco1 (some centres not stated) | 5
CCSC(=O)/C=C(C)/C=C/CC(C)CCCC(C)(C)OC (configuration not stated) | 5
O=c1nc(Cl)nc(Cl)[nH]1 | 5
CC(=O)N1CCSC1C(=O)Oc1c(C)ncc(CO)c1CO (configuration not stated) | 5
O=C1NCCCN1 | 5
CCOC(=O)CC(=O)N1CCSC1COc1ccccc1OC (configuration not stated) | 5
CN(C)C(=O)OC1N=C(c2ccccc2)c2cc(Cl)ccc2N(C)C1=O (configuration not stated) | 5
CC(C)=CCN(CC=C(C)C)CCC(C#N)(Cc1cccc2ccccc12)C(C)C (configuration not stated) | 4
Nc1ccc(C(=O)c2ccc(Cl)cc2)cc1O | 5
O=C(NNCc1ccccc1)C(O)C(O)C(O)CO (configuration not stated) | 5
CC(SC(=O)c1cccs1)C(=O)NC1CCSC1=O (configuration not stated) | 5
CC12C=CC(=O)C=C1CCC1C2CCC2(C)C(O)CCC12 (configuration not stated) | 5
CCCNC(=O)C(Cc1ccc(OCCN(CC)CC)cc1)NC(=O)c1ccccc1 (configuration not stated) | 4
Cc1cccc(C)c1NC(=O)CN1CCN(CCCC(c2ccc(F)cc2)c2ccc(F)cc2)CC1 | 5
CCCCCCCCCCOC1OC(CO)C(O)C(O)C1O (configuration not stated) | 5
NS(=O)(=O)c1cc(C(=O)NN2C[C@H]3[C@H]4CCC(C4)[C@H]3C2)ccc1Cl | 5
O=[N+]([O-])c1ccc2c(c1)COP(=S)(N1CCCCC1)O2 (configuration not stated) | 3
O=C(O)CN(CC(=O)O)CC(O)CN(CC(=O)O)CC(=O)O | 5
Cc1cc2[nH]c(=O)[nH]c2cc1N=NC1C(=O)NC(=O)NC1=O | 5
CCOc1ccc(Nc2ccc(C(=C3C=CC(=[N+](CC)Cc4cccc(S(=O)(=O)[O-])c4)C=C3C)c3ccc(N(CC)Cc4cccc(S(=O)(=O)O)c4)cc3C)cc2)cc1 | 5
N#Cc1ccc(NC(=O)Oc2ccccc2)cc1 | 5
CCC1(CO)COC1 | 5
CC(C)(c1ccccc1)c1ccc(Nc2ccc(C(C)(C)c3ccccc3)cc2)cc1 | 5

Structure (SMILES) | GHS category
CCCCCCCCCCCCCCCCCC(=O)NP(=O)(OC)SC (configuration not stated) | 3
Cn1c(=O)oc2cc(C(=O)c3cccs3)ccc21 | 5
Nc1cccc2c(S(=O)(=O)O)cccc12 | 5
COc1ccc2c(c1)CCN(c1ccccc1)C2c1ccc(O)cc1 (configuration not stated) | 4
CC1=CC(=O)N(Cc2cccc(CN3C(=O)C=C(C)C3=O)c2)C1=O | 5
CCOC(=O)C(C)O (configuration not stated) | 5
CC(=O)O[C@@]12CCC[C@@](C)(CC[C@@H]3[C@@H]1CC3(C)C)C2 | 5
O=C(Nc1ccc2[nH]c(=O)[nH]c2c1)c1cc2ccccc2c(N=Nc2cc(Cl)ccc2Cl)c1O | 5
CCCc1nc2ncnn2c(CCC)c1Cc1ccc(-c2ccccc2-c2nn[nH]n2)cc1 | 4
CCCCCCCCCCCOC(=O)c1ccccc1C(=O)OCCCCCCCCCCC | 5
CC(CO)CO | 5
O=C(O)c1cc(Br)nn1-c1ncccc1Cl | 5
CCOC(=O)COc1cc(-c2nn(C)c(OC(F)F)c2Cl)c(F)cc1Cl | 5
O=c1[nH]c(CCl)nc2sc3c(c12)CCCC3 | 5
COCCCNc1nc(NC(C)C)nc(SC)n1 | 5
COC(=O)c1nc(Cl)c(Cl)nc1N | 5
Cc1cc2nc3c(=O)[nH]c(=O)nc-3n(C[C@H](O)[C@H](O)[C@H](O)CO)c2cc1C | 5
CCCCCCCCCC(C)=O | 5
O=C=Nc1cccc2c(N=C=O)cccc12 | 5
COC[C@H]1CO[C@@](Cn2ccnc2)(c2cc3cc(Cl)cc(Cl)c3o2)O1 | 4
O=C1CC(=O)NC(=S)N1 | 5
CCC(CC)CC1(C(=O)O)CCCCC1 | 4
Cc1ccc(C(=O)OCCCl)cc1N=Nc1c(O)c(C(=O)Nc2cc(C)c(NC(=O)c3cc4ccccc4c(N=Nc4cc(C(=O)OCCCl)ccc4C)c3O)cc2C)cc2ccccc12 | 5

Structure (SMILES) | GHS category
C[C@@H]1C[C@H]2C3C[C@H](F)C4=CC(=O)C=CC4(C)[C@@]3(F)[C@@H](O)CC2(C)[C@@]1(O)C(=O)COC(=O)C(C)(C)C (some centres not stated) | 5
COc1ccc2c(c1)c(CC(=O)NC1CCCC1)c(C)n2C(=O)c1ccc(Cl)cc1 | 5
C=CC/C=C/C/C=C/C/C=C/C | 5
O=S(=O)(O)c1ccc(/N=N/c2cc(S(=O)(=O)O)c3ccccc3c2O)c2ccccc12 | 5
CC(C)C(O)C(C)(C)CO (configuration not stated) | 5
COC(=O)[C@H]1[C@H]2C[C@@H]3c4[nH]c5cc(OC)ccc5c4CCN3C[C@H]2C[C@@H](OC(=O)/C=C/c2ccc(O)c(OC)c2)[C@@H]1OC | 5
CCOC[C@@H]1CO[C@@](Cn2ccnc2)(c2cc3cc(Cl)cc(Cl)c3o2)O1 | 4
CCC(C)(Oc1ccc(C2(c3ccc(OC(C)(CC)C(=O)O)cc3)CCCCC2)cc1)C(=O)O (configuration not stated) | 5
C[C@@H]1CC(C)(C)O[C@](Cn2cncn2)(c2cc3ccccc3o2)O1 | 4
CC(=O)C(O)O | 5
CCCCCCOc1ccccc1C(N)=O | 5
COc1cc(NC(=O)C(/N=N/c2cc(OC)c(S(=O)(=O)Nc3ccccc3)cc2OC)C(C)=O)c(OC)cc1Cl (configuration not stated) | 5
CC(=O)OC1CN(C)C(=O)N1c1cc(C(C)(C)C)no1 (configuration not stated) | 4
O=[N+]([O-])c1ccc(C=NOCc2cccc([N+](=O)[O-])c2)cc1 | 4
CCC(C(=O)NC(N)=O)c1ccccc1 (configuration not stated) | 5
CC(C)C(N)C(=O)OCc1ccccc1 (configuration not stated) | 5
c1ccc([Si]2(c3ccccc3)O[Si](c3ccccc3)(c3ccccc3)O[Si](c3ccccc3)(c3ccccc3)O[Si](c3ccccc3)(c3ccccc3)O2)cc1 | 5
O=C(O)[C@H](O)[C@H](O)[C@@H](O)[C@H](O)[C@H](O)CO | 5
CC(C)(C)CC(C)(C)c1ccc(O)c(Cc2ccc(Cl)cc2Cl)c1 | 5
CCCCCCCCCC | 5
CCCCCCOC(=O)C(C)CC (configuration not stated) | 5
NCC(=O)N[C@@H](CCC(N)=O)C(=O)O (H-Gly-Gln-OH) | 5
Cc1ncc(COP(=O)(O)O)c(CN)c1O | 5

Structure (SMILES) | GHS category
C=C(C)C(=O)OCCOC(=O)NCCC(C)CC(C)(C)CNC(=O)OCCOC(=O)C(=C)C (configuration not stated) | 5
c1ccc(-c2nc3ccccc3o2)cc1 | 5
O=C(NC(=O)c1c(F)cccc1F)Nc1cc(Cl)c(F)c(Cl)c1F | 5
O=C(C=Cc1ccccc1)NCCO | 5
O=C1CCC(N2C(=O)c3ccccc3C2=O)C(=O)N1CN1CCOCC1 (configuration not stated) | 5
CC(C)=CCCC(C)(C)O | 5
CC(C)(C)[C@H](NC(=O)OCc1ccccc1)C(=O)O | 4
CCCCCCOc1ccc(-c2ccc(C#N)cc2)cc1 | 5
CCCCC(=O)O[C@]1(C(=O)COC(C)=O)CC[C@H]2[C@@H]3CCC4=CC(=O)C=C[C@]4(C)[C@H]3[C@@H](O)C[C@@]21C | 5
NCC(O)CCl (configuration not stated) | 4
CCCOC(=O)c1sc(C(=O)OCCC)c(O)c1O | 4
COc1cc(OC)nc(NC(=O)NS(=O)(=O)Cc2ccccc2C(=O)O)n1 | 5
C=C(C)C(=O)OCCOC(=O)Oc1ccc(C(C)(C)c2ccc(OC(=O)OCCOC(=O)C(=C)C)cc2)cc1 | 5
CCCCCCCCCCCCCCCCCCCCCC(=O)O | 5
CCOC(=O)c1cc(Cl)ccc1OC(N)=O | 5
O=C(O)Cc1nc(-c2ccc(F)cc2)oc1-c1ccsc1 | 5
Nc1ccc(-c2ccc(N)c3c2C(=O)c2ccccc2C3=O)c2c1C(=O)c1ccccc1C2=O | 5
NCC[C@H](O)C(=O)N[C@@H]1C[C@H](N)[C@@H](O[C@H]2O[C@H](CN)CC[C@H]2N)[C@H](O)[C@H]1O[C@H]1O[C@H](CO)[C@@H](O)[C@H](N)[C@H]1O | 5
O=[N+]([O-])c1ccc(CCc2ccc([N+](=O)[O-])cc2)cc1 | 5
COC(=O)c1ccccc1S(=O)(=O)NC(=O)N(C)c1nc(C)nc(OC)n1 | 5
O=C1c2ccccc2C(=O)c2c(Nc3ccccc3)ccc(O)c21 | 5
CC(=O)[C@@]1(O)CC[C@H]2[C@@H]3CCC4=CC(=O)CC[C@]4(C)C3=CC[C@@]21C | 5
CCOS(=O)(=O)c1cc(C(C)(C)C)cc2cc(C(C)(C)C)ccc12 | 5

Structure (SMILES) | GHS category
CCN(CC)C(=O)CCCn1nnnc1C | 4
CC#Cc1cc(C)nc(Nc2ccccc2)n1 | 5
COCC(=O)N(c1c(C)cccc1C)[C@H](C)C(=O)OC | 4
C=C(C)CCC[C@H](C)CCOC(=O)Cc1ccccc1 | 5
CC1OC(OC2CCC(OC3C(O)CC(c4ccc5c(c4O)C(=O)C4=C(C5=O)C5(O)C(=O)CC(C)(OC6CCC(OC7C=CC(=O)C(C)O7)C(C)O6)CC5(O)C=C4)OC3C)OC2C)C=CC1=O (configuration not stated) | 4
CCOC[C@H]1CO[C@@](Cn2ccnc2)(c2cc3cc(Cl)cc(Cl)c3o2)O1 | 4
COc1cc(OC)nc(NC(=O)NS(=O)(=O)c2ncccc2OCC(F)(F)F)n1 | 5
O=c1[nH]c(=O)n([C@H]2C[C@H](O)[C@@H](CO)O2)cc1C(F)(F)F | 5
C#CCOc1ccc(CCNC(=O)C(OCC#C)c2ccc(Cl)cc2)cc1OC (configuration not stated) | 5
CCC(=O)/C=C/C=C(\C)CCC=C(C)C | 5
OC1(c2ccc(-c3ccccc3)cc2)c2ccccc2C2=NCCN21 (configuration not stated) | 4
CCCCOC(=O)Nc1nc(N2CC=CCC2)cc2nc(=O)on12 | 5
COc1cc(NC(=O)c2cc3ccccc3cc2O)c(OC)cc1Cl | 5
Nc1nc(=O)c2c(CCc3ccc(C(=O)O)cc3)c[nH]c2[nH]1 | 5
CC(C)(C)C(=O)OCC(=O)c1ccccc1 | 5
C#CCOC(=O)Nc1nc(N2CC=CCC2)cc2nc(=O)on12 | 5
CC1CCN(c2nc3cc(Cl)ccc3o2)CCN1 (configuration not stated) | 4
CC(=O)OC1CCCCC1C (configuration not stated) | 5
O=C(CSCCO)NCCCOc1cccc(CN2CCCCC2)c1 | 5
Cc1ccc(N=Nc2c(O)c(C(=O)O)cc3ccccc23)c(S(=O)(=O)O)c1 | 5
